Source: patent US11312690B2, “Compounds, compositions, methods for treating diseases, and methods for preparing compounds” (UNIVERSITY OF LOUISVILLE RESEARCH FOUNDATION, INC., priority 2015, dated 2022)

Experiments:
RalA = assay: Activated RalA pull down in lung tissue of Mia-PaCa2 xenograft mice; format: in vivo, NRG mice; details: treated vs carrier treated xenograft mouse, FIG. 5
Method: Some compounds of Formula (I) suppress Ral GTP levels in vivo—FIG. 5 NRG mice were provided with s.c. xenografts of Mia-PaCa2 cells. Tissue from the lungs of a carrier treated xenograft mouse and a compound I-1 treated mouse were assayed for the levels of activated RalA using a pull down assay kit using the manufacter's protocol (Cat. #BK040 from Cytoskeleton, Inc., Denver Colo.).

Ral = assay: Endogenous Ral activation in cells with endogenous hyper-activated Ras (RalBP1 pull down kit); format: cell-based; details: 10 μM, untransfected cells, FIG. 4
Method: Specific Inhibition of endogenous Ras/RalGEF signaling. FIG. 4. Specific suppression of Ral activation by some compounds of Formula (I). Cells with endogenous hyper-activated Ras were assayed for endogenous Ral activation in the presence or absence of inhibitor (10 μM) using a Cell Biolabs (SanDiego Calif.) kit. Compound I-1 was dissolved in DMSO; DMSO serves as the carrier negative control. IP is immunoprecipitation. IB is immunoblot. Cell lysates were then assayed for the levels of MAPK pathway activation using a phosphoERK antibody. They were the same. Actin is a loading control.
RalGEFs drive Ral into the active, GTP bound form so it can bind its effector RalBP1. […] Commercially available kits available from several vendors use RalBP1 attached to beads as an affinity reagent specific to the active form of Ral. By measuring the level of activated Ral and comparing it to the total levels of Ral, it is possible to measure the state of endogenous Ral activation. We assayed untransfected cells containing endogenous hyper-activated Ras for the effects of compound I-1 treatment on endogenous levels of active Ral levels.

Panc-1 = assay: Normal 2D growth on plastic; format: cell-based, human; details: normal 2D growth conditions on plastic, 1 week, FIG. 1C
Method: (§1) FIG. 1. Effects of some compounds of Formula (I) on RalGEF inhibitor on soft agar growth and normal growth in 2D of pancreatic carcinoma cell lines. In FIGS. 1A and 1B, Panc-1 (ATCC® CRL-1469™) and MiaPaCa-2 (ATCC® CRL-1420™) mutant Ras containing pancreatic tumor cell lines were plated in soft agar in the presence of 10 μM or 0.9 μM of compound I-1 and scored for the formation of colonies. In FIGS. 1C and 1D, compound I-1 was then tested for the ability to inhibit cell growth on the same cell lines under normal 2D growth conditions on plastic. “0” is the carrier. […]

MiaPaCa-2 [1] = assay: Normal 2D growth on plastic; format: cell-based, human; details: normal 2D growth conditions on plastic, 1 week, FIG. 1D
Method: as §1

A549 (lung cancer) = assay: Tumorigenic phenotype in vitro, Ras driven tumor cell line; format: cell-based; details: data not shown
Excerpt: (§2) (ATCC® HTB-75™)(ovarian cancer); D283 Med (ATCC® HTB-185™) (Medulloblastoma); A549 (ATCC® CCL-185™) (lung cancer); and LNCaP clone FGC (ATCC® CRL1740™) (prostate cancer).

[2] = system: D283 Med (Medulloblastoma); assay: as above; format: cell-based; details: data not shown
Excerpt: as §2

[3] = system: LNCaP clone FGC (prostate cancer); assay: as above; format: cell-based; details: data not shown
Excerpt: as §2

[4] = system: Caov-3 [Caov3] (ovarian cancer); assay: as above; format: cell-based; details: data not shown
Excerpt: as §2

MiaPaCa-2 [5] = assay: Soft agar colony formation; format: cell-based, human
Method: FIG. 1. Effects of some compounds of Formula (I) on RalGEF inhibitor on soft agar growth and normal growth in 2D of pancreatic carcinoma cell lines. In FIGS. 1A and 1B, Panc-1 (ATCC® CRL-1469™) and MiaPaCa-2 (ATCC® CRL-1420™) mutant Ras containing pancreatic tumor cell lines were plated in soft agar in the presence of 10 μM or 0.9 μM of compound I-1 and scored for the formation of colonies. In FIGS. 1C and 1D, compound I-1 was then tested for the ability to inhibit cell growth on the same cell lines under normal 2D growth conditions on plastic. “0” is the carrier. Cells were seeded at the same density and scored after two weeks in culture.
Human pancreatic tumor cell lines MiaPaca-2 and Panc-1 contain activated K-Ras and were used in the initial screen to identify compound I-1. Soft agar colony formation remains an established in vitro assay to predict tumorigenicity and was used to predict tumorigenicity for compound I-1.
Several other compounds were tested against the Mia Paca-2 cell line using the soft agar colony formation in vitro assay in two experiments. For each table, DMSO was used as a control and, as such, within each table, the DMSO colonies are the measure against which each measurement in the corresponding table is compared.

[6] = target: T1, interaction of K-Ras with RGL2 (Homo sapiens, UniProt O15211); assay: Ras/RalGEF binding, immunoprecipitation and immunoblot from co-transfected HEK-293 cells; details: 10 μM, HA K-Ras 12v and GFP-RGL2, IP/IB, FIG. 3B
T1 construct: expressed in transfected cells; host or cells: HEK-293
T1 sequence (O15211 1-777): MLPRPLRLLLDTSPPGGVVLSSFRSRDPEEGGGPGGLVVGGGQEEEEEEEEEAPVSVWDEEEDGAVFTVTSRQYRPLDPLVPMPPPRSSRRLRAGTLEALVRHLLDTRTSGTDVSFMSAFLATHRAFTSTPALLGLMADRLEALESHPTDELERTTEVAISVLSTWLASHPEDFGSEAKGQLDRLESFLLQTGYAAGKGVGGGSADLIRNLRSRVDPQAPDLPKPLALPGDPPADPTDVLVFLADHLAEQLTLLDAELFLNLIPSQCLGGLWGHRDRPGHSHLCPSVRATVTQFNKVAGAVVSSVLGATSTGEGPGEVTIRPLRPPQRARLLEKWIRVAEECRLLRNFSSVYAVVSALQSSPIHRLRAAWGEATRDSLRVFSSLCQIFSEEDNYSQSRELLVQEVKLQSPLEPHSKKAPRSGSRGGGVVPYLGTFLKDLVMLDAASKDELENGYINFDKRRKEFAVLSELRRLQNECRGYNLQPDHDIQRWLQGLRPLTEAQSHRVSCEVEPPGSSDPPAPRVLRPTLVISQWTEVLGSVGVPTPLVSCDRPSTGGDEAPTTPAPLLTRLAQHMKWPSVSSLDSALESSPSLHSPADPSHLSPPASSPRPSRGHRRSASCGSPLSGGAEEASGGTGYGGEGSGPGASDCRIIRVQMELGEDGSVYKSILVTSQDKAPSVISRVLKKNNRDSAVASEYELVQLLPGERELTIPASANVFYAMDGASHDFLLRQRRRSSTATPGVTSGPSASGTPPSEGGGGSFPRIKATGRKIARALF

## COc1cccc(CNc2nc(CN(C)Cc3cccc(OC)c3)nc3sc(C)c(C)c23)c1 [Compound I-1]
RalA
  levels of active RalA in lung tissue: reduced levels of active RalA
Ral
  levels of endogenous active Ral (GTP bound): suppressed the levels of endogenous active Ral
Panc-1
  cell growth in 2D: no reduction in growth
MiaPaCa-2 [1]
  cell growth in 2D: no reduction in growth
A549 (lung cancer)
  tumorigenic phenotype in vitro: blocks the tumorigenic phenotype in vitro
[2]
  tumorigenic phenotype in vitro: blocks the tumorigenic phenotype in vitro
[3]
  tumorigenic phenotype in vitro: blocks the tumorigenic phenotype in vitro
[4]
  tumorigenic phenotype in vitro: blocks the tumorigenic phenotype in vitro
MiaPaCa-2 [5]; 10 μM, FIG. 1B
  ability of the cells to grow in soft agar: almost completely blocked
MiaPaCa-2 [5]; 10 μM, Table 2 experiment, DMSO control 182 ± 7 colonies
  Colonies in agar: 0 ± 0
MiaPaCa-2 [5]; 10 μM, Table 3 experiment, DMSO control 1686 ± 114 colonies
  Colonies in agar: 12 ± 1
MiaPaCa-2 [5]; FIG. 1B
  tumorigenic phenotype in vitro: blocks the tumorigenic phenotype in vitro at low μM or sub μM levels
MiaPaCa-2 [5]; Homo sapiens, MIA PaCa-2, read-out: IC50 (concentration that inhibits 50% of colony formation)
  IC50: < 1000 nM
[6]
  inhibition of RGL2 (Ras/RGL2 interaction): also inhibited RGL2
